SMILES strings stand for the structures. Where only a bound is given, the exact number is not on record here.

The subject of one test is NMNAT2-V5 polypeptide. Description: NMNAT2-V5 polypeptide expression in transfected Beas2B cells (Western blot), dose dependent, 24 h. The format is cell-based. The settings on record: Beas2B cells transfected with NMNAT2-V5 plasmid, compound for 24 hours, read-out: A: compound efficacy (IC50) for NMNAT2 activation. On the procedure:
FIG. 1. Beas2B cells were transfected with NMNAT2-V5 plasmid. 24 hours later, cells were treated with compounds in a dose dependent manner (0, 1, 5, and 25 μM) for additional 24 hours. Cells were then collected and assayed for NMNAT2-V5 protein expression.
Selected compounds were tested in vitro. Briefly, Beas2B cells were transfected with NMNAT2-V5 plasmid. 24 hours later, cells were treated with a test compound in a dose dependent manner for additional 24 hours. Cells were then collected and assayed for NMNAT2-V5 polypeptide expression. Results of the assay are shown in Table A. Western blots showing levels of NMNAT2-V5 polypeptide for selected compounds are shown in FIG. 1.
Background: Immunoblotting shows a protein as a band on a membrane.
Consider `CC(=O)Nc1ccc(NC(=O)c2ccccc2OCc2nc(-c3ccc(C)cc3)ns2)cc1` [BC18137], for which the IC50 is 5 to 25 µM.

Consider `O=C(COc1nc2cc(C(=O)NCc3ccc(F)cc3)ccc2c(=O)n1CCOO)c1ccc(O)cc1` [BC18132], for which the IC50 was below 5 µM.

As to `CC(=O)Nc1ccc(NC(=O)c2ccccc2OCc2nc(-c3ccc(C)cc3)ns2)cc1` [BC18116], the IC50 was at least 25 µM.

On to `O=C(Cn1c(=O)[nH]c2ccccc2c1=O)NCc1ccncc1` [BC18122], for which the IC50 lay in the range of 5 to 25 µM.

Take `COc1cccc(NS(=O)(=O)c2ccc3[nH]cc(C(=O)NC(C)c4ccc5c(c4)OCCO5)c(=O)c3c2)c1` (centres unmarked) [BC18134]: the IC50 is at least 25 µM.

With `COc1ccc(OC)c(CCNC(=O)C(Cc2ccccc2)N2Cc3ccccc3C2=O)c1` (centres unmarked) [BC18138], the IC50 was 5 to 25 µM.

Consider `CCn1cc(C(=O)NC(C)c2ccc3c(c2)OCCO3)c(=O)c2cc(S(=O)(=O)N3CCc4ccccc4C3)ccc21` (centres unmarked) [BC18131], for which the IC50 was in the range of 5 to 25 µM.

On to `CN(CCc1nsc(-c2ccc(C(=O)NCc3ccc4c(c3)OCO4)cc2)n1)C(=O)c1ccccc1` [BC18121], for which the IC50 was at least 25 µM.

As for `O=C(COCc1cc(-c2cccs2)sn1)NCCN1CCC(Cc2ccccc2)CC1` [BC18136], the IC50 is at least 25 µM.

With `O=C(CCc1nnc2n(Cc3ccccc3)c(=O)c3ccccc3n12)N1CCN(CCOc2ccc(Cl)cc2)CC1` [BC18120], the IC50 was below 5 µM.

In the case of `O=C(COc1ccc(F)cc1)N1CCN(Cc2cccc(-c3n[nH]c(-c4cccc(Cl)c4)n3)c2)CC1` [BC18124], the IC50 is below 5 µM.

`O=C(Cn1ccc2ccc(F)cc21)NCc1ccco1` [BC18126]: the IC50 is below 5 µM.

With `Cc1cc(C)n(CC(=O)NCc2ccco2)c(=O)c1C#N` [BC18128], the IC50 is below 5 µM.

As to `COc1ccc(OC)c(CCNC(=O)C(Cc2ccccc2)N2Cc3ccccc3C2)c1` (centres unmarked) [BC18117], the IC50 was in the range of 5 to 25 µM.

As to `Cc1n[nH]c(/C=C/c2ccc(N)cc2)c1S(=O)(=O)N1CCC(C(=O)N2CCN(Cc3ccc4c(c3)OCO4)CC2)CC1` [BC18123], the half-inhibitory concentration (IC50) was below 5 µM.

As for `O=C(CSC1=Nc2ccccc2C2=NC(CCC(=O)N3CCN(c4ccccc4)CC3)C(=O)C12)NCC1CCCO1` (centres unmarked) [BC18130], the IC50 was in the range of 5 to 25 µM.

For the molecule `O=C(Cn1ccc2ccc(F)cc21)NCc1ccccn1` [BC18127], the IC50 is 5 to 25 µM.

In the case of `O=C(COCc1cc(-c2cccs2)sn1)NCCN1CCC(Cc2ccccc2)CC1` [BC18115], the IC50 lay within 5 to 25 µM.

`COc1ccc(OC)c(CCNC(=O)C(Cc2ccccc2)N2Cc3ccccc3C2=O)c1` (centres unmarked) [BC18133]: the IC50 was 5 to 25 µM.

For the molecule `COc1ccc(OCC(=O)Nc2ccc3c(c2)nc(CCNC(=O)c2cccs2)n3C)cc1` [BC18118], the IC50 is at least 25 µM.

Take `N#Cc1nc(-c2ccc(COc3ccccc3)s2)sc1OCCc1ccc(ON)cc1` [BC18135]: the half-maximal inhibitory concentration (IC50) was at least 25 µM.

Consider `Cc1ccc2onc(CNC(=O)NCc3ccccn3)c2c1` [BC18129], for which the IC50 fell in the range of 5 to 25 µM.

`Cc1ccc2onc(CNC(=O)NCc3cccc(Cl)c3)c2c1` [BC18125]: the IC50 is below 5 µM.

A further test relates to NMNAT2. Description: NMNAT2-Hibit nano-luciferase activity in transfected U87MG cells, 5 μM, 48 hours. The settings on record: NMNAT2-Hibit luciferase plasmid, 48 hours (Table D). The format is cell-based. Here is the method: Selected compounds were tested in vitro. Briefly, U87MG cells were transfected with NMNAT2-Hibit luciferase plasmid. Cells were treated with test compound at 5 μM for 48 hours. Cells were then collected and assayed for nano-luciferase activity.
`Cc1ccc(CNC(=O)c2ccc3c(c2)c(C)c(C)n3Cc2ccccc2)o1` [BC181248]: the “D: compound efficacy for NMNAT2 activation; increase in NMNAT2 luciferase activity” value was “++ (“++” >20% and <100% increase in NMNAT2 luciferase activity.)”.

Turning to `Cc1ccccc1Cn1cc(CCC(=O)NCc2ccco2)c2ccccc21` [BC181241], the “D: compound efficacy for NMNAT2 activation; increase in NMNAT2 luciferase activity” value was “+ (“+” <20% increase in NMNAT2 luciferase activity.)”.

`Cc1cccc(NC(=O)Cn2cc(C(=O)c3ccccc3)c3ccccc32)c1` [BC181208]: the “D: compound efficacy for NMNAT2 activation; increase in NMNAT2 luciferase activity” value is “+ (“+” <20% increase in NMNAT2 luciferase activity.)”.

Consider `Cc1cccc(NC(=O)Cn2cc(C(=O)c3ccccc3)c3ccccc32)c1C` [BC181210], for which the “D: compound efficacy for NMNAT2 activation; increase in NMNAT2 luciferase activity” value was “++ (“++” >20% and <100% increase in NMNAT2 luciferase activity.)”.

For `CC1CCN(C(=O)Cn2cc(C(=O)c3ccccc3)c3ccccc32)CC1` [BC181205], the “D: compound efficacy for NMNAT2 activation; increase in NMNAT2 luciferase activity” value is “+ (“+” <20% increase in NMNAT2 luciferase activity.)”.

As for `Cc1ccc(C)c(NC(=O)Cn2cc(C(=O)c3ccccc3)c3ccccc32)c1` [BC181211], the “D: compound efficacy for NMNAT2 activation; increase in NMNAT2 luciferase activity” value was “++ (“++” >20% and <100% increase in NMNAT2 luciferase activity.)”.

`Cc1ccc(NC(=O)Cn2cc(C(=O)c3ccccc3)c3ccccc32)cc1C` [BC181212]: the “D: compound efficacy for NMNAT2 activation; increase in NMNAT2 luciferase activity” value was “+ (“+” <20% increase in NMNAT2 luciferase activity.)”.

On to `Cc1ccc2c(c1)c(=O)c(C(=O)c1ccncc1)cn2CC(=O)NCc1ccc(Cl)cc1` [BC181251], for which the “D: compound efficacy for NMNAT2 activation; increase in NMNAT2 luciferase activity” value was “++ (“++” >20% and <100% increase in NMNAT2 luciferase activity.)”.

With `CCN(CC)C(=O)C(=O)c1cn(CC(=O)NCCc2ccccc2)c2ccccc12` [BC181227], the “D: compound efficacy for NMNAT2 activation; increase in NMNAT2 luciferase activity” value is on record as “+ (“+” <20% increase in NMNAT2 luciferase activity.)”.

Consider `Cc1ccccc1Cn1cc(CCC(=O)NCC2=CC=CC2)c2ccccc21` [BC181238], for which the “D: compound efficacy for NMNAT2 activation; increase in NMNAT2 luciferase activity” value is “++ (“++” >20% and <100% increase in NMNAT2 luciferase activity.)”.

Turning to `Cc1ccc(Cn2cc(CCC(=O)NCc3ccco3)c3ccccc32)cc1` [BC181240], the “D: compound efficacy for NMNAT2 activation; increase in NMNAT2 luciferase activity” value was “+ (“+” <20% increase in NMNAT2 luciferase activity.)”.

Take `O=C(Cn1cc(C(=O)C2CC2)c2ccccc21)NCc1ccco1` [BC181202]: the “D: compound efficacy for NMNAT2 activation; increase in NMNAT2 luciferase activity” value was “+ (“+” <20% increase in NMNAT2 luciferase activity.)”.

On to `Cc1ccc(CNC(=O)Cn2cc(C(=O)c3ccncc3)c(=O)c3cc(C)ccc32)cc1` [BC181250], for which the “D: compound efficacy for NMNAT2 activation; increase in NMNAT2 luciferase activity” value is recorded as “+ (“+” <20% increase in NMNAT2 luciferase activity.)”.

As for `CC(=O)c1cn(CC(=O)NCc2ccncc2)c2ccccc12` [BC181266], the “D: compound efficacy for NMNAT2 activation; increase in NMNAT2 luciferase activity” value is reported as “+ (“+” <20% increase in NMNAT2 luciferase activity.)”.

Turning to `O=C(Cn1cc(C(=O)c2ccccc2)c2ccccc21)NCc1ccco1` [BC181206], the “D: compound efficacy for NMNAT2 activation; increase in NMNAT2 luciferase activity” value is “++ (“++” >20% and <100% increase in NMNAT2 luciferase activity.)”.

As to `Cc1ccc(Cn2cc(C(CC(=O)NCc3ccco3)c3ccccc3C)c3ccccc32)cc1` (centres unmarked) [BC181260], the “D: compound efficacy for NMNAT2 activation; increase in NMNAT2 luciferase activity” value is “++ (“++” >20% and <100% increase in NMNAT2 luciferase activity.)”.

Regarding `Cc1ccc(Cn2cc(CCCC(=O)NCc3ccco3)c3ccccc32)cc1` [BC181230], the “D: compound efficacy for NMNAT2 activation; increase in NMNAT2 luciferase activity” value is given as “+++ (“+++” >100% increase in NMNAT2 luciferase activity.)”.

Turning to `O=C(Cn1cc(C(=O)C(F)(F)F)c2ccccc21)NCc1ccccc1` [BC181201], the “D: compound efficacy for NMNAT2 activation; increase in NMNAT2 luciferase activity” value is recorded as “+++ (“+++” >100% increase in NMNAT2 luciferase activity.)”.

On to `COc1ccc(Cn2cc(C(CC(=O)NCc3ccco3)C(C)(C)C)c3ccccc32)cc1` (centres unmarked) [BC181263], for which the “D: compound efficacy for NMNAT2 activation; increase in NMNAT2 luciferase activity” value is “++ (“++” >20% and <100% increase in NMNAT2 luciferase activity.)”.

Regarding `Cc1ccccc1Cn1cc(CCC(=O)NCc2ccco2)c2ccccc21` [BC181237], the “D: compound efficacy for NMNAT2 activation; increase in NMNAT2 luciferase activity” value was “++ (“++” >20% and <100% increase in NMNAT2 luciferase activity.)”.

As to `Cc1ccc(C)c(Cn2cc(CCC(=O)NCC3=CC=CC3)c3ccccc32)c1` [BC181246], the “D: compound efficacy for NMNAT2 activation; increase in NMNAT2 luciferase activity” value was “++ (“++” >20% and <100% increase in NMNAT2 luciferase activity.)”.

As to `Cc1ccc(Cn2cc(CCCC(=O)NCc3ccco3)c3ccccc32)cc1` [BC181231], the “D: compound efficacy for NMNAT2 activation; increase in NMNAT2 luciferase activity” value is “++ (“++” >20% and <100% increase in NMNAT2 luciferase activity.)”.

Take `CCN(CC)C(=O)Cn1cc(C(=O)c2ccccc2)c2ccccc21` [BC181217]: the “D: compound efficacy for NMNAT2 activation; increase in NMNAT2 luciferase activity” value is listed as “+ (“+” <20% increase in NMNAT2 luciferase activity.)”.

For `O=C(Cn1cc(C(=O)c2ccncc2)c(=O)c2cc(F)ccc21)NCc1ccccc1` [BC181253], the “D: compound efficacy for NMNAT2 activation; increase in NMNAT2 luciferase activity” value is “++ (“++” >20% and <100% increase in NMNAT2 luciferase activity.)”.

By IC50 is commonly meant the concentration that inhibits the measured activity by half.

These data come from patent US20220169632A1, “METHODS AND MATERIALS FOR INCREASING OR MAINTAINING NICOTINAMIDE MONONUCLEOTIDE ADENYLYL TRANSFERASE-2 (NMNAT2) POLYPEPTIDE LEVELS” (University of Pittsburgh - Of the Commonwealth System of …, priority 2019, published 2022).
